Structures are written as SMILES.

T1 sequence (P00533 with tags, fused parts or gaps DEL746-750/T790M limits assumed): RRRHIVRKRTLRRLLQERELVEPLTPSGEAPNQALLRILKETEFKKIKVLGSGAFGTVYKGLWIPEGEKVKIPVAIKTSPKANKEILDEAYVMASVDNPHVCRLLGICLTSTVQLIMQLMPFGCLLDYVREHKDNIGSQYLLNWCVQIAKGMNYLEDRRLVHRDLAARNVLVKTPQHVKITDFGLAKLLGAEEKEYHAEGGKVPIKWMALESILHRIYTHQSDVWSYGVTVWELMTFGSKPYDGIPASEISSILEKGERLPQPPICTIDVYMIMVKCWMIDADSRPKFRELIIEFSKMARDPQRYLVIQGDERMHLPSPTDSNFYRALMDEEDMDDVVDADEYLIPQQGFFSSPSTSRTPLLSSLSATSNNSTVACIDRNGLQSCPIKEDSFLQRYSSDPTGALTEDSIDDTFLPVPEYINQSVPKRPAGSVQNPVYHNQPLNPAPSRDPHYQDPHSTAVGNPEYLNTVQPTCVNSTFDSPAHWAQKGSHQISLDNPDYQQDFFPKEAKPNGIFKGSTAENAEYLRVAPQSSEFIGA

This assay concerns the target T1, EGFR del746-750 T790M (Homo sapiens, UniProt P00533, DEL746-750/T790M).
T1 construct: purchased Carna Biosciences 08-528
Briefly: EGFR del746-750 T790M biochemical assay (Caliper mobility shift). Conditions: 5 μM ATP, 30 min, room temperature; apparent Ki (Morrison) converted by Cheng-Prusoff, Km of ATP 2.1 μM; read-out: EGFR(T790M/d746-750) Ki.
As for `C[C@H](n1c(CO)nc2cnc(Nc3ccnc(N4CC[C@H](O)[C@H](F)C4)n3)cc21)C(C)(F)F` (racemic) [Example 644, (±)-(cis)-1-(4-(1-((S)-3,3-Difluorobutan-2-yl)-2-(hydroxymethyl)-1H-imidazo[4,5-c]pyridin-6-ylamino)pyrimidin-2-yl)-3-fluoropiperidin-4-ol], the Ki is 3.45 nM.

Turning to `C[C@H](n1c([C@@H](C)O)nc2cnc(Nc3ccnc(N4CC[C@](C)(O)[C@H](F)C4)n3)cc21)C(F)(F)F` [Example 676], the Ki was found to be 8.18 nM.

With `Cc1nc2cnc(Nc3ccnc(N4CCC(O)CC4)n3)cc2n1C(C)C` [Example 503, 1-(4-((1-Isopropyl-2-methyl-1H-imidazo[4,5-c]pyridin-6-yl)amino)pyrimidin-2-yl)piperidin-4-ol], the Ki came to 128 nM.

As for `COC1CCN(c2nccc(Nc3cc4c(cn3)c(C(=O)NC(C)C)cn4C(C)C)n2)CC1` [Example 120, N,1-diisopropyl-6-((2-(4-methoxypiperidin-1-yl)pyrimidin-4-yl)amino)-1H-pyrrolo[3,2-c]pyridine-3-carboxamide], the Ki stood at 10.2 nM.

Turning to `Cc1nc2cnc(Nc3ccnc(N4CCC5(CCO5)CC4)n3)cc2n1C(C)C` [Example 495, N-(2-(1-Oxa-7-azaspiro[3.5]nonan-7-yl)pyrimidin-4-yl)-1-isopropyl-2-methyl-1H-imidazo[4,5-c]pyridin-6-amine], the Ki came to 71.7 nM.

For the molecule `CC(C)n1cc(C(=O)N[C@@H]2CCN(C3COC3)C[C@@H]2F)c2cnc(Nc3ccnc(-c4cnn(S(=O)(=O)C5CC5)c4)n3)cc21` (racemic) [Example 372, (±)-6-((2-(1-(cyclopropylsulfonyl)-1H-pyrazol-4-yl)pyrimidin-4-yl)amino)-N-((cis)-3-fluoro-1-(oxetan-3-yl)piperidin-4-yl)-1-isopropyl-1H-pyrrolo[3,2-c]pyridine-3-carboxamide], the Ki stood at 1.08 nM.

With `CC1CC1n1c(CO)nc2cnc(Nc3ccnc(-c4cnn(S(=O)(=O)C5CC5)c4)n3)cc21` (centres unmarked) [Example 698], the Ki came out at 7.02 nM.

Consider `CC(C)n1cc(C(=O)NC2COC2)c2cnc(Nc3ccnc(-c4cnn(S(=O)(=O)C5CC5)c4)n3)cc21` [Example 386, 6-((2-(1-(cyclopropylsulfonyl)-1H-pyrazol-4-yl)pyrimidin-4-yl)amino)-1-isopropyl-N-(oxetan-3-yl)-1H-pyrrolo[3,2-c]pyridine-3-carboxamide], for which the Ki came to 1.11 nM.

Consider `CC(C)n1cnc2cnc(Nc3ccnc(NCC(C)(C)C(N)=O)n3)cc21` [Example 85, 3-(4-(1-isopropyl-1H-imidazo[4,5-c]pyridin-6-ylamino)pyrimidin-2-ylamino)-2,2-dimethylpropanamide], for which the Ki amounted to 20.8 nM.

On to `CC(C)n1c(CO)nc2cnc(Nc3ccnc(N4CC[C@H](O)[C@@](C)(F)C4)n3)cc21` [Example 702], for which the Ki is 239 nM.

Regarding `C[C@H](n1c([C@@H](C)O)nc2cnc(Nc3ccnc(NCC(C)(C)S(C)(=O)=O)n3)cc21)C(F)(F)F` [Example 663], the Ki was 14.5 nM.

With `CNc1nc(C)c(-c2nccc(Nc3cc4c(cn3)nc(C)n4C(C)C)n2)s1` [Example 611, (1-Isopropyl-2-methyl-1H-imidazo[4,5-c]pyridin-6-yl)-[2-(4-methyl-2-methylaminothiazol-5-yl)pyrimidin-4-yl]amine], the Ki was found to be 0.773 nM.

For `CC(C)n1cc(-c2cnn(CC(N)=O)c2)c2cnc(Nc3ccnc(-c4cnn(S(=O)(=O)C5CC5)c4)n3)cc21` [Example 331, 2-(4-(6-((2-(1-(Cyclopropylsulfonyl)-1H-pyrazol-4-yl)pyrimidin-4-yl)amino)-1-isopropyl-1H-pyrrolo[3,2-c]pyridin-3-yl)-1H-pyrazol-1-yl)acetamide], the Ki amounted to 2.83 nM.

`C[C@H](n1c(CO)nc2cnc(Nc3ccnc(N4CC[C@H](O)[C@H](F)C4)n3)cc21)C(F)(F)F` [Example 667]: the Ki was 5.65 nM.

With `CC(n1cc(C(=O)NC2CCOCC2)c2cnc(Nc3ccnc(N4CC[C@@H](O)[C@@H](F)C4)n3)cc21)C(F)(F)F` (single isomer, unassigned) [Example 640], the Ki came out at 15.3 nM.

For the molecule `Cc1cn(CCO)nc1-c1cn(C(C)C)c2cc(Nc3ccnc(-c4cnn(S(=O)(=O)C5CC5)c4)n3)ncc12` [Example 253, 2-(3-(6-(2-(1-(Cyclopropylsulfonyl)-1H-pyrazol-4-yl)pyrimidin-4-ylamino)-1-isopropyl-1H-pyrrolo[3,2-c]pyridin-3-yl)-4-methyl-1H-pyrazol-1-yl)ethanol], the Ki is 1.82 nM.

In the case of `CC(C)n1c(CO)nc2cnc(Nc3ccnc(N4CCC5(CC4)CNC(=O)CO5)n3)cc21` [Example 693], the Ki was found to be 572 nM.

With `CO[C@H]1CCN(c2nccc(Nc3cc4c(cn3)nc(C)n4C(C)C)n2)C[C@H]1F` (racemic) [Example 524, (±)-[2-((cis)-3-Fluoro-4-methoxypiperidin-1-yl)pyrimidin-4-yl]-(1-isopropyl-2-methyl-1H-imidazo[4,5-c]pyridin-6-yl)amine], the Ki amounted to 50.9 nM.

In the case of `CC(C)n1c(CO)nc2cnc(Nc3ccnc(N4CC[C@H](O)[C@](C)(F)C4)n3)cc21` (racemic) [Example 645, (3RS,4SR)-3-Fluoro-1-(4-((2-(hydroxymethyl)-1-isopropyl-1H-imidazo[4,5-c]pyridin-6-yl)amino)pyrimidin-2-yl)-3-methylpiperidin-4-ol], the Ki is 68.7 nM.

For the molecule `Cc1cn[nH]c1-c1cn(C(C)C)c2cc(Nc3ccnc(-c4cnn(S(=O)(=O)C5CC5)c4)n3)ncc12` [Example 346, N-(2-(1-(cyclopropylsulfonyl)-1H-pyrazol-4-yl)pyrimidin-4-yl)-1-isopropyl-3-(4-methyl-1H-pyrazol-5-yl)-1H-pyrrolo[3,2-c]pyridin-6-amine], the Ki is 3.07 nM.

As for `CC(C)n1cc(C(=O)NC2CCOCC2)c2cnc(Nc3ccnc(N4CCC(O)C(C)(C)C4)n3)cc21` (racemic) [Example 385, (±)-6-((2-(4-hydroxy-3,3-dimethylpiperidin-1-yl)pyrimidin-4-yl)amino)-l-isopropyl-N-(tetrahydro-2H-pyran-4-yl)-1H-pyrrolo[3,2-c] pyridine-3-carboxamide], the Ki worked out at 6.47 nM.

In the case of `C[C@H](O)c1nc2cnc(Nc3ccnc(N4CC[C@@H](O)[C@@H](F)C4)n3)cc2n1[C@H](C)C(F)(F)F` [Example 689], the Ki worked out at 230 nM.

As to `Cc1nc2cnc(Nc3ccnc(NCC4CCS(=O)(=O)C4)n3)cc2n1C(C)C` (centres unmarked) [Example 652], the Ki was determined as 1160 nM.

For the molecule `CC(C)n1c(CO)nc2cnc(Nc3ccnc(C4=CCC(O)CC4)n3)cc21` (centres unmarked) [Example 624, 4-(4-((2-(hydroxymethyl)-1-isopropyl-1H-imidazo[4,5-c]pyridin-6-yl)amino)pyrimidin-2-yl)cyclohex-3-enol], the Ki is 67.8 nM.

As to `CCc1ncc(-c2nccc(Nc3cc4c(cn3)nc(CO)n4C(C)C)n2)s1` [Example 671], the Ki is 12.6 nM.

For the molecule `CC(n1cc(C(=O)NC2CCOCC2)c2cnc(Nc3ccnc(N4CCC(C)(O)CC4)n3)cc21)C(F)(F)F` (centres unmarked) [Example 636, 6-(2-(4-Hydroxy-4-methylpiperidin-1-yl)pyrimidin-4-ylamino)-N-(tetrahydro-2H-pyran-4-yl)-1-(1,1,1-trifluoropropan-2-yl)-1H-pyrrolo[3,2-c]pyridine-3-carboxamide], the Ki was 14.4 nM.

Source of the values: patent US9890152B2 (Genentech, Inc., priority 2012, dated 2018).
